Drawing on US11046690B2, “Pyridazinones and methods of use thereof” (Goldfinch Bio, Inc., priority 2018, dated 2021), this text covers IC50 for two compounds.

This assay has as its target T1, TRPC5 (Homo sapiens, UniProt Q9UL62).
T1 construct: expressed in transfected cells
T1 sequence (Q9UL62 1-973): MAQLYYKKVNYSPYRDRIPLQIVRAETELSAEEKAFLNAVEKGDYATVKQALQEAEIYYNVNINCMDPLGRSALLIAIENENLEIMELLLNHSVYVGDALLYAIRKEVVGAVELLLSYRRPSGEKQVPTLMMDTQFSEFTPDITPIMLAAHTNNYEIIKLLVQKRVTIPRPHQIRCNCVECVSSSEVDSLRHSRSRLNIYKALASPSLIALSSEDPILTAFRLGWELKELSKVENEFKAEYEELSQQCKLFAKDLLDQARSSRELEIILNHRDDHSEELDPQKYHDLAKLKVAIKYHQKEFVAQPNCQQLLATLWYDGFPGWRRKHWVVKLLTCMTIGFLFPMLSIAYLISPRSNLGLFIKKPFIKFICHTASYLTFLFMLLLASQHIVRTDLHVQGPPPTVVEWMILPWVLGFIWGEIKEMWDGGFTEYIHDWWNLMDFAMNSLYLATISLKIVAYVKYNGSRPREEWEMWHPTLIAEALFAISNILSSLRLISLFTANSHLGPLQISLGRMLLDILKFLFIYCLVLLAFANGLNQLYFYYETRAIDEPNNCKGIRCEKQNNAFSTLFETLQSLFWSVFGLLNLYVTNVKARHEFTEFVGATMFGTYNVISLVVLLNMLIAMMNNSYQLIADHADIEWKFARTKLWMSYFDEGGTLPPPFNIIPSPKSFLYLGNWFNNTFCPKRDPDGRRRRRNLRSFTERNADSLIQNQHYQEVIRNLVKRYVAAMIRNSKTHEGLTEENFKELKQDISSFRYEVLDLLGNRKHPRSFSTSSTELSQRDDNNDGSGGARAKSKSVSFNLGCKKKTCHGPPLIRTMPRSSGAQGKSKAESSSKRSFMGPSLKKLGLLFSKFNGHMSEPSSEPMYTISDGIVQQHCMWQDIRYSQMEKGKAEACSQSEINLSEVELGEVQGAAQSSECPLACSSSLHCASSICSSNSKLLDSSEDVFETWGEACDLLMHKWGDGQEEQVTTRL
Nature of the assay: TRPC5 activity assay (FLIPR calcium fluorescence, Riluzole stimulation). It is filed as cell-based. Particulars: HEK-TREx hTRPC5 cells, 30 μM Riluzole stimulation; read-out: TRPC5 (IC50 class). The protocol: ICLN-1633 cells (HEK-TREx hTRPC5) expressing TRPC5 were generated as follows. Commercially available HekTrex-293 cells were seeded at 0.7×10^6 cells/well in a 1×6-well plate 24 hrs prior to transfection using 2 mL cell growth media containing no antibiotics (1× DMEM/high glucose (Hyclone #SH30022.02); 10% fetal bovine serum (Sigma) 2 mM sodium pyruvate, 10 mM HEPES). […] On day 2, 2 μg of plasmid DNA plus 6 μl of Xtreme-GENE HP reagent in Optimem (200 μl total volume) was prepared and incubated for 15 min at room temperature. This plasmid solution was then gently overlayed dropwise onto each well and the plate was gently swirled to mix complex with the media for approximately 30 seconds. Transfected cells were incubated at 37° C. in a 10%/CO2 incubator for 24 hrs. The transfected cells were harvested and transferred into 2×150 mm dishes containing cell growth media with no antibiotics at 37° C.
The next day selection was initiated to generate a stable pool by adding cell growth media containing 150 μg/mL Hygromycin and 5 μg/mL Blasticidin and cells were allowed to grow. Media with the selection agent was changed every 1-2 days as needed to remove dead cells. After 7 days, the hygromycin concentration was reduced to 75 μg/mL and cells growth was allowed to continue.
Single clones were selected as follows. The stable pool was diluted to 10 cells/mL and seeded (100 μl/well) into 24×96 well plates (˜1 cell/well) and allowed to grow for 7 days in cell growth media. Fresh media (100 μl) was added and the cells allowed to grow for another 1-2 weeks and then stored frozen or used immediately.
10-point dose response curves were generated using the Echo-550 acoustic dispenser. Compound source plates were made by serially diluting compound stocks to create 10 mM, 1 mM, and 0.1 mM solutions in DMSO into Echo certified LDV plates. The Echo then serially spotted 100%/DMSO stock solutions into source dose response plates to generate a 4-fold dilution scheme. 100%0/DMSO was added to the spotted dose response plates to bring the final volume to 5 μl. 300 nl of the dose response stock plate was then spotted into pre-incubation and stimulation assay plates. 50 μl of pre-incubation buffer and 100 μl of stimulation buffer was then added to the plates resulting in a final assay test concentration range of 30 μM to 0.0001 μM with a final DMSO concentration of 0.3%.
Human ICLN-1633 cells expressing were plated onto 384 well, black PDL-coated microplates and maintained in TRPC5 growth media the day prior to use for experiments. TRPC5 expression was induced by the application of 1 μg/mL tetracycline at the time of plating. […] Cells are incubated at room temperature, protected from light, for 60-90 minutes. After the incubation period, the dye is removed and replaced with 10 μl of EBSS. Cell, pre-incubation and stimulation plates are loaded onto the FLIPR-II and the assay is initiated. The FLIPR measures a 10 second baseline and then adds 10 μl of 2X compounds (or controls). Changes in fluorescence are monitored for an additional 5 minutes. After the 5 minute pre-incubation, 20 μl of 2X Riluzole (with 1X compound or controls) is added to the cell plate. The final Riluzole stimulation concentration in the assay is 30 μM. After the Riluzole addition, changes in fluorescence are monitored for an additional 5 minutes.
Compound modulation of TRPC5 calcium response was determined as follows. After the Englerin A, fluorescence was monitored for a 5-minute period. The maximum relative fluorescence response (minus the control response of 1 μM of an internal control compound known to maximally block TRPC5 calcium response, the “REF INHIB” in the formula below) was captured and exported from the FLIPR.
Compound effect is calculated as % inhibition using the following formula:
[formula] wherein “RFU” is the relative fluorescent units.

On to `O=c1[nH]ncc(N2CCc3c(ncnc3Oc3ccc(F)cc3Cl)C2)c1Cl` [Compound 104], for which the half-maximal inhibitory concentration (IC50) (usually the concentration needed to halve the response being measured) was < 50 nM.
As to `CC1Cc2c(ncnc2Oc2ccc(F)cc2Cl)CN1c1cn[nH]c(=O)c1Cl` (single isomer, unassigned) [Compound 117], the IC50 is < 50 nM.
